Measured values reported in patent US20040247604A1, “Anti-inflamatory fatty alcohols and fatty acid esters useful as antigen carriers” (priority 2001, published 2004).
Several values for one entry are separate records, joined by “and”; a condition that tells them apart may be missing. Identical values can stand only once.

Test system: adjuvant arthritis
Assay: Protection against adjuvant arthritis (AA): inhibition of joint inflammation
Assay type: in vivo, Lewis rats
Conditions: for inflammation suppressed on day of peak disease: day 26; for % Inhibition of inflammation of adjuvant arthritis: 100 μl, subcutaneously once (14 days before or day 12 after induction of AA), day of maximal inflammation

Compound | % Inhibition of inflammation of adjuvant arthritis (Lewis rats) | other results
CCCCCCCC/C=C\CCCCCCCCO [Oleyl alcohol, cis-9-octadecenol] | 78%-96% | inflammation suppressed on day of peak disease (10 μl SC once 14 days before induction of AA): 14%; inflammation suppressed on day of peak disease (50 μl SC once 14 days before induction of AA): 61%; inflammation suppressed on day of peak disease (100 μl SC once 14 days before induction of AA): 78%; inflammation suppressed on day of peak disease (500 μl SC once 14 days before induction of AA): 90%; suppression of the inflammation (500 μl oleyl alcohol, two further experiments, Lewis rats): 96% and 91%
CCCCCCCC/C=C\CCCCCCCC(=O)OCC(O)CO (stereo not shown) [Glycerol mono-oleate] | 98% | 
CCCCCCCC/C=C\CCCCCCCC(=O)OC [Methyl oleate] | 76% | 
CCC=CCC=CC/C=C\CCCCCCCCO [Linolenyl alcohol, cis-9,12,15-octadecatrienol] | 75% | 
CCCCCCCC/C=C\CCCCCCCC(=O)OCC [Ethyl oleate] | 92% | 
CCCCCCCC/C=C\CCCCCCCC(=O)O [oleic acid, cis-9-octadecenoic acid, reference compound] | no effect | 
CCCCCCCCCCCCCCCCO [Cetyl alcohol] | 66% | 
Mannose monooleate | 95% | 
